Results from US20230414607A1, “METHODS OF TREATMENT” (BOW RIVER LLC, priority 2017, published 2023).
Where two headings read alike, the source gives them in different places.

Assays:
[1] = Pooled posaconazole steady-state concentration and elimination half-life, clinical studies BOW-001 and BOW-002; format: in vivo, human; details: for half-life: human, in vivo
Text: The two clinical studies used the same protocol to measure posaconazole's elimination half-life, allowing for the data for normal patients from each study to be combined (“All Normal”) and data for obese patients from each study to be combined (“All Obese”).

[2] = Example 3: posaconazole posttreatment washout; format: in vivo; details: human, plasma, oral, 300 mg
[3] = Plasma posaconazole concentrations and washout half-life in normal-weight and obese subjects; format: in vivo, human; details: for Trough (predose) steady-state posaconazole concentration: Day 15, posaconazole 300 mg delayed-release tablet daily; for half-life: human, plasma, oral, from day 15, read-out: Postdosage washout half-life of posaconazole (converted)
Protocol: On study day 2, subjects received posaconazole (300 mg delayed-release tablet twice a day), and on the mornings of days 3-15, subjects received posaconazole (300 mg delayed-release tablet daily). Because posaconazole is to be taken with food,^6 subjects were fed a continental breakfast in the clinical research unit after receiving posaconazole and before discharge from the unit. […] One additional blood sample was taken 5 hours after the posaconazole dose on day 15 for approximate determination of maximum plasma posaconazole concentrations. Samples were centrifuged, and the plasma was separated and frozen at −70° C. until the time of assay of plasma posaconazole concentrations.
Analytic Methods. All bioassay analysis was performed by Keystone Bioanalytical (North Wales, PA). For analysis of posaconazole, the internal standard (posaconazole-d4) was added to the biological samples. Plasma samples were precipitated using formic acid in acetonitrile and isolated using a Phree phospholipid removal tube, and then an aliquot of the sample was injected onto a high-pressure liquid chromatography with tandem mass spectrometry triple quadrupole mass spectrometer (Sciex API-5500). The analytical column was a Unison CK-218, 3 μm particle size HPLC column (50×2 mm) from Imtakt USA (Portland, OR). The mobile phase consisted of an aqueous component (0.25% formic acid and 10 mmol/L ammonium formate in water) and an organic component (0.1% formic acid in acetonitrile) and was delivered by gradient, with the organic component going from 35% to 100%. The m/z transitions monitored were 701.6→614.4 for posaconazole and 705.6→618.4 for the internal standard. The calibration curve ranged from 1 to 1000 ng/mL (8 concentrations in duplicate). The interassay precision of this method (as percentage coefficient of variance) was 4.28% to 7.14%, and the interassay accuracy (as percentage relative error) was […] to 3.12%.
For each subject, the predose plasma posaconazole concentration on study day 15 was used as a steady-state concentration. The apparent washout half-life of posaconazole was calculated by log-linear regression analysis starting with the plasma concentration on day 15 and ending with the last nonzero value. Differences between normal-weight and obese cohorts were evaluated by Student t-test for independent groups.

[4] = Example 2: posaconazole pharmacokinetics in normal-weight and obese subjects; format: in vivo, human; details: for Steady-state concentration, Mean ± SD: posaconazole 300 mg once daily; for half-life: human, plasma, oral
Protocol: On study Day 4, subjects received two doses of posaconazole (300 mg BID). On the mornings of Days 5-17, they received posaconazole 300 mg once daily. As posaconazole is to be taken with food, subjects were fed a continental breakfast in the clinical research unit after receiving posaconazole and prior to discharge from the unit. Venous blood samples were drawn into EDTA containing tubes prior to the posaconazole dose on Days 4, 7, 11, and prior to the lurasidone dose on Days 14, 20, 23, 26 and 30. An additional blood sample was taken 5 hours after posaconazole dosage on Day 17, for approximate determination of maximum posaconazole plasma concentrations, and on Day 33. Samples were centrifuged and the plasma was separated and frozen at −70° C. until the time of assay.
Analytic Methods. All bioassay analyses were performed by Keystone Bioanalytical, North Wales, PA. For analysis of posaconazole, the internal standard (posaconazole-D4) was added to the biological samples. Plasma samples were precipitated using formic acid in acetonitrile and isolated using a Phree phospholipid removal tube. An aliquot of the sample was injected onto a high-pressure liquid chromatograph with tandem mass spectrometry triple quadrupole mass spectrometer (SCIEX API-5500). The analytical column was a Unison CK-218, 3 μm particle size HPLC column (50×2 mm) from Imtakt USA (Portland, OR). The mobile phase consisted of an aqueous component (0.25% formic acid and 10 mM ammonium formate in water) and an organic component (0.1% formic acid in acetonitrile) and was delivered by gradient, with the organic component going from 35% to 100%. The m/z transitions monitored were 701.6>614.4 for posaconazole and 705.6>618.4 for the internal standard. The calibration curve ranged from 1-1000 ng/mL (8 concentrations in duplicate).
Pharmacokinetic and Statistical Methods. […] The apparent washout half-life of posaconazole was calculated by log-linear regression analysis starting with the plasma concentration on Day 20 and ending with the last non-zero value. Differences between normal-weight and obese cohorts were evaluated by Student's t-test for independent groups. The relation between measures of body habitus and posaconazole washout half-life for individual subjects was evaluated by linear regression analysis.

[5] = target: CYP3A4 (Homo sapiens, UniProt P08684); details: human
Text: Blood plasma levels may be described in various ways, such as area under the plasma concentration curve (AUC) and peak plasma concentration (Cmax). Baseline levels and posaconazole interaction levels for CYP3A4 substrate drugs may be compared using the geometric mean ratio (GMR) of AUC and Cmax. […] GMR is the standard industry and regulatory method for assessing the ratio of change of a pharmacokinetic variable (such as AUC) relative to its own baseline value (e.g., in a patient that was not treated with posaconazole). Once the level of substrate drug (AUC or Cmax) during co-administration with posaconazole and a CYP3A4 substrate drug is known, a function can be derived using conventional pharmacological methods to estimate how the AUC or plasma level of the CYP3A4 substrate drug is expected to decay over time after stopping administration of posaconazole. Such a function can be used to provide a plot of the decay GMR of AUC (or Cmax) of the CYP3A4 substrate drug versus time due to its interaction with posaconazole, based on the stated half-life of posaconazole.
The expected DDI decay curve can also be calculated for Cmax GMR by substituting Cmax during co-administration for AUC during co-administration in equation 1. As used herein, “expected levels” and “predicted levels” and the like, refer to the AUC or Cmax GMR values calculated using equation 1.

[6] = Noxafil label, cited from earlier work

Chain of CYP3A4 (P08684 whole entry): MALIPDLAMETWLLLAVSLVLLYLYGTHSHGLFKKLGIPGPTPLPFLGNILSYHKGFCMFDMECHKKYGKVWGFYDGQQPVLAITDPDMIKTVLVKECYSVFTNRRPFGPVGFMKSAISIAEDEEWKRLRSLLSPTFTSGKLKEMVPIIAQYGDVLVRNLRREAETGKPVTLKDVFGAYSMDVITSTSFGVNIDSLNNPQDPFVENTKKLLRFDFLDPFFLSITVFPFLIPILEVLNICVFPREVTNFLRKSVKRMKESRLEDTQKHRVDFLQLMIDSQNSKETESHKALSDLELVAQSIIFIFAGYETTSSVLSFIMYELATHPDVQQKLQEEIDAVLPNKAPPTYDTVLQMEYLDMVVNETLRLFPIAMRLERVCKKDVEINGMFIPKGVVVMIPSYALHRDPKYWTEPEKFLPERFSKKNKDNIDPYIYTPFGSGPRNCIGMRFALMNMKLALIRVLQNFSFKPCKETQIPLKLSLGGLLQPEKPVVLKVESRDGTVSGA

In the case of `CC[C@@H]([C@H](C)O)n1ncn(-c2ccc(N3CCN(c4ccc(OC[C@@H]5CO[C@@](Cn6cncn6)(c6ccc(F)cc6F)C5)cc4)CC3)cc2)c1=O` [posaconazole], the “Css, Mean” value ([1]; All Normal (pooled)) is reported as 2864 ng/mL, the “Css, Mean” value ([1]; All Obese (pooled)) is reported as 1860 ng/mL and the “Css, Mean” value ([1]; BOW-001 Normal) is reported as 3071 ng/mL. The “Css, Mean” value ([1]; BOW-001 Obese) was 2258 ng/mL, the “Css, Mean” value ([1]; BOW-002 Normal) was 2514 ng/mL and the “Css, Mean” value ([1]; BOW-002 Obese) was 1462 ng/mL. It also gave a half-life ([1]; All Normal (pooled), normal weight patients, read-out: t1/2, Mean (elimination half-life) (converted)) of 33.6 h, a half-life ([1]; All Obese (pooled), obese patients, read-out: t1/2, Mean (elimination half-life) (converted)) of 58.3 h and a half-life ([1]; BOW-001 Normal, read-out: t1/2, Mean (converted)) of 35.7 h. The half-life ([1]; BOW-001 Obese, read-out: t1/2, Mean (converted)) was 64.5 h, the half-life ([1]; BOW-002 Normal, read-out: t1/2, Mean (converted)) was 30.9 h and the half-life ([1]; BOW-002 Obese, read-out: t1/2, Mean (converted)) was 52.5 h. For the same compound, the half-life ([2]; normals) was 36 h, the half-life ([2]; obese subjects) was 64 h and the “Trough (predose) steady-state posaconazole concentration” value ([3]; normal-weight subjects) was 3071 ± 1422 ng/mL. For the same compound, the “Trough (predose) steady-state posaconazole concentration” value ([3]; obese subjects) was 2258 ± 952 ng/mL, the half-life ([3]; normal-weight subjects) was 35.8 h and the half-life ([3]; obese subjects) was 64.3 h. For the same compound, the “Time posaconazole plasma concentrations persisted after stopping treatment” value ([3]; most subjects) was “at least 2 weeks”, the “Steady-state concentration, Mean ± SD” value ([4]; Normal) was 2377 ± 1188 ng/mL and the “Steady-state concentration, Mean ± SD” value ([4]; Obese) was 1462 ± 649 ng/mL. It also gave a half-life ([4]; Normal, read-out: Washout half-life, Mean ± SD (converted)) of 31 h, a half-life ([4]; Obese, read-out: Washout half-life, Mean ± SD (converted)) of 53 h and a half-life ([4]; controls (normal-weight), read-out: Mean washout half-life (converted)) of 30.7 h. The half-life ([4]; obese group, read-out: Mean washout half-life (converted)) was 52.6 h, the half-life ([4]; two obese subjects, read-out: very long half-life values (converted)) was 121 h and the “Kel=ln(2)/(31 hours/24 hours)” value [5] was “about 0.5366”. For the same compound, the posaconazole half-life ([6]; after administration of posaconazole oral suspension) was 31 to 37 h, the posaconazole half-life ([6]; after dosing with posaconazole injection) was “about 24 hours” and the posaconazole half-life ([6]; patients with mild hepatic impairment) was 39 h. For the same compound, the posaconazole half-life ([6]; patients with moderate hepatic impairment) was 27 h, the posaconazole half-life ([6]; patients with normal hepatic function) was 27 h and the posaconazole half-life ([6]; patients with severe hepatic impairment) was 43 h.
